Measurements reported in ChEMBL document CHEMBL4251740, “Further Exploring Solvent-Exposed Tolerant Regions of Allosteric Binding Pocket for Novel HIV-1 NNRTIs Discovery” (ACS Med Chem Lett, 2018).
Active and inactive are the calls of the source. No cut-off for these calls is given here.

Assays:
[1] = system: Human immunodeficiency virus type 1 reverse transcriptase (Human immunodeficiency virus 1), Q72547 [F227L,V106A]; test: Potency index, ratio of ETV EC50 to test compound EC50 for HIV1 RES056 reverse transcriptase F227L/V106A double mutant infected in human MT4 cells; type: cell-based
[2] = system: Human immunodeficiency virus type 1 reverse transcriptase (Human immunodeficiency virus 1), Q72547 [K103N]; test: Potency index, ratio of ETV EC50 to test compound EC50 for HIV1 reverse transcriptase K103N mutant infected in human MT4 cells; type: cell-based
[3] = Selectivity index, ratio of CC50 for human MT4 cells to EC50 for HIV1 RES056 reverse transcriptase K103N/Y181C double mutant infected in human MT4 cells; type: toxicity, cell-based; conditions: read-out: Ratio CC50/EC50
[4] = system: Human immunodeficiency virus 1; test: Fold resistance, ratio of EC50 for HIV1 reverse transcriptase K103N mutant infected in human MT4 cells to EC50 for wild-type HIV1 3B reverse transcriptase infected in human MT4 cells; type: cell-based
[5] = Selectivity index, ratio of CC50 for human MT4 cells to EC50 for wild-type HIV1 3B reverse transcriptase infected in human MT4 cells; type: toxicity, cell-based; conditions: read-out: Ratio CC50/EC50
[6] = (§1) Cytotoxicity against human MT4 cells assessed as reduction in cell viability by MTT assay; type: cell-based; conditions: MT4 cells
[7] = system: Human immunodeficiency virus type 1 reverse transcriptase (Human immunodeficiency virus 1), Q72547 [L100I]; test: Potency index, ratio of ETV EC50 to test compound EC50 for HIV1 reverse transcriptase L100I mutant infected in human MT4 cells; type: cell-based
[8] = system: Human immunodeficiency virus type 1 reverse transcriptase (Human immunodeficiency virus 1), Q72547 [R221A]; test: Potency index, ratio of ETV EC50 to test compound EC50 for HIV1 reverse transcriptase Y188L mutant infected in human MT4 cells; type: cell-based
[9] = target: Human immunodeficiency virus type 1 reverse transcriptase (Human immunodeficiency virus 1) (UniProt Q72547); test: Potency index, ratio of ETV EC50 to test compound EC50 for wild-type HIV1 3B reverse transcriptase infected in human MT4 cells; type: cell-based
[10] = system: Human immunodeficiency virus type 1 reverse transcriptase (Human immunodeficiency virus 1), Q72547 [E138K]; test: Potency index, ratio of ETV EC50 to test compound EC50 for HIV1 reverse transcriptase E138K mutant infected in human MT4 cells; type: cell-based
[11] = system: Human immunodeficiency virus type 1 reverse transcriptase (Human immunodeficiency virus 1), Q72547 [K103N,Y181C]; test: Potency index, ratio of ETV EC50 to test compound EC50 for HIV1 RES056 reverse transcriptase K103N/Y181C double mutant infected in human MT4 cells; type: cell-based
[12] = system: Human immunodeficiency virus 1; test: Fold resistance, ratio of EC50 for HIV1 reverse transcriptase Y181C mutant infected in human MT4 cells to EC50 for wild-type HIV1 3B reverse transcriptase infected in human MT4 cells; type: cell-based
[13] = system: Human immunodeficiency virus type 1 reverse transcriptase (Human immunodeficiency virus 1), Q72547 [R221A]; test: Inhibition of HIV1 reverse transcriptase Y188L mutant infected in human MT4 cells assessed as protection against virus-induced cytotoxicity by MTT assay; type: cell-based
[14] = system: Human immunodeficiency virus type 1 reverse transcriptase (Human immunodeficiency virus 1), Q72547 [F227L,V106A]; test: Inhibition of HIV1 RES056 reverse transcriptase F227L/V106A double mutant infected in human MT4 cells assessed as protection against virus-induced cytotoxicity by MTT assay; type: cell-based
[15] = system: Human immunodeficiency virus type 1 reverse transcriptase (Human immunodeficiency virus 1), Q72547 [Y181C]; test: Inhibition of HIV1 reverse transcriptase Y181C mutant infected in human MT4 cells assessed as protection against virus-induced cytotoxicity by MTT assay; type: cell-based
[16] = system: Human immunodeficiency virus type 1 reverse transcriptase (Human immunodeficiency virus 1), Q72547 [L100I]; test: Inhibition of HIV1 reverse transcriptase L100I mutant infected in human MT4 cells assessed as protection against virus-induced cytotoxicity by MTT assay; type: cell-based
[17] = system: Human immunodeficiency virus 1; test: Fold resistance, ratio of EC50 for HIV1 reverse transcriptase E138K mutant infected in human MT4 cells to EC50 for wild-type HIV1 3B reverse transcriptase infected in human MT4 cells; type: cell-based
[18] = system: Human immunodeficiency virus type 1 reverse transcriptase (Human immunodeficiency virus 1), Q72547 [K103N]; test: Inhibition of HIV1 reverse transcriptase K103N mutant infected in human MT4 cells assessed as protection against virus-induced cytotoxicity by MTT assay; type: cell-based
MT4 = test: as §1; type: cell-based; conditions: mt4

| SMILES | selectivity ratio [3] | selectivity ratio [5] | CC50 [6] [µM] | also measured |
| --- | --- | --- | --- | --- |
| Cc1cc(C#N)cc(C)c1Oc1nc(NC2CCN(Cc3ccc(S(N)(=O)=O)cc3)CC2)nc2cc[nH]c12 | 61 | 1050 | 1.91 | Ratio EC50 [1]: 1.5 to 2.6; Ratio EC50 [2]: 4 to 5; Ratio EC50 [4]: 0.3 to 0.6; Ratio EC50 [7]: 1.5 to 2.6; Ratio EC50 [8]: 4 to 5; Ratio EC50 [9]: 1.5 to 2.6; Ratio EC50 [10]: 4 to 5; Ratio EC50 [11]: 1.5 to 2.6 |
| Cc1cc(C#Cc2ccccn2)cc(C)c1Oc1nc(NC2CCN(Cc3ccc(S(N)(=O)=O)cc3)CC2)nc2ccsc12 | 12 | 1130 | 10.3 | – |
| Cc1ccnc2c1NC(=O)c1cccnc1N2C1CC1 [NEVIRAPINE] | – | – | > 15 | – |
| Cc1cc(C#N)cc(C)c1Oc1nc(NC2CCN(Cc3ccc(S(N)(=O)=O)cc3)CC2)nc2ccn(COCc3ccccc3)c12 | 10 | 632 | 4.84 | Ratio EC50 [12]: 0.5 to 0.7 |
| Cc1cc(C#N)cc(C)c1Oc1nc(NC2CCN(Cc3n[nH]c(=O)n3C)CC2)nc2ccsc12 | > 15 | > 18500 | > 254 | – |
| Cc1cc(C#N)cc(C)c1Oc1nc(NC2CCN(Cc3ccc(S(C)(=O)=O)cc3)CC2)nc2cc[nH]c12 | 16 | 589 | 8.12 | Ratio EC50 [4]: 0.3 to 0.6 |
| Cc1cc(C#N)cc(C)c1Nc1nc(NC2CCN(Cc3ccc(S(N)(=O)=O)cc3)CC2)nc2ccsc12 | > 7440 | > 159000 | > 227 | – |
| Cc1cc(C#Cc2ccncc2)cc(C)c1Oc1nc(NC2CCN(Cc3ccc(S(N)(=O)=O)cc3)CC2)nc2ccsc12 | 52 | 340 | 11.5 | – |
| Cc1cc(/C=C/C#N)cc(C)c1Nc1nc(NC2CCN(Cc3ccc(S(N)(=O)=O)cc3)CC2)nc2ccsc12 | 419 | 1880 | 2.3 | – |
| Cc1cc(C#N)cc(C)c1Oc1nc(NC2CCN(Cc3cc(=O)[nH]c(=O)[nH]3)CC2)nc2ccsc12 | 15 | 18600 | 133 | inhibition [13]: inactive; inhibition [14]: inactive; inhibition [15]: inactive; inhibition [16]: inactive |
| Cc1cc(C#N)cc(C)c1Oc1nc(NC2CCN(Cc3c[nH]cn3)CC2)nc2ccsc12 | 21 | 4420 | 24.3 | inhibition [13]: inactive; inhibition [14]: inactive; inhibition [15]: inactive; inhibition [16]: inactive |
| Cc1cc(C#N)cc(C)c1Oc1nc(NC2CCN(Cc3ccc(S(N)(=O)=O)cc3)CC2)nc2ccn(S(=O)(=O)c3ccccc3)c12 | 33 | 454 | 3.67 | – |
| Cc1cc(C#N)cc(C)c1Oc1nc(NC2CCN(Cc3cn(S(C)(=O)=O)cn3)CC2)nc2ccsc12 | 8 | 3720 | 21.1 | inhibition [13]: inactive; inhibition [14]: inactive; inhibition [15]: inactive; inhibition [16]: inactive |
| Cc1cc(C#N)cc(C)c1Oc1nc(NC2CCN(Cc3ccc(S(C)(=O)=O)cc3)CC2)nc2ccn(COCc3ccccc3)c12 | 17 | 459 | 10 | Ratio EC50 [12]: 0.5 to 0.7 |
| Cc1cc(C#N)cc(C)c1Oc1nc(NC2CCN(Cc3ccc(N4CCCC4)cc3)CC2)nc2ccsc12 | < 1 | 133 | 4.35 | – |
| Cc1cc(C#N)cc(C)c1Oc1nc(NC2CCN(Cc3ccc(C(N)=O)cc3)CC2)nc2ccn(COCc3ccccc3)c12 | 9 | 177 | 6.44 | Ratio EC50 [17]: 0.9; Ratio EC50 [12]: 0.5 to 0.7 |
| Cc1cc(C#Cc2cccnc2)cc(C)c1Oc1nc(NC2CCN(Cc3ccc(S(N)(=O)=O)cc3)CC2)nc2ccsc12 | 42 | 157 | 6.39 | – |
| Cc1cc(C#N)cc(C)c1Oc1nc(NC2CCN(Cc3ccc(C(N)=O)cc3)CC2)nc2cc[nH]c12 | 118 | 1830 | 15.9 | Ratio EC50 [4]: 0.3 to 0.6 |
| Cc1cc(C#N)cc(C)c1Oc1nc(NC2CCN(Cc3ccc(S(C)(=O)=O)cc3)CC2)nc2ccn(S(=O)(=O)c3ccccc3)c12 | 26 | 270 | 5.15 | – |
| Cc1cc(C#N)cc(C)c1Oc1nc(NC2CCN(Cc3ccco3)CC2)nc2ccsc12 | – | > 76500 | > 254 | inhibition [13]: inactive; inhibition [14]: inactive; inhibition [15]: inactive; inhibition [16]: inactive; inhibition [18]: Active |
| Cc1cc(C#N)cc(C)c1Oc1nc(Nc2ccc(C#N)cc2)nc(N)c1Br [ETRAVIRINE] | – | – | 2.16 to 4.59 | – |
| Cc1cc(C#N)cc(C)c1Oc1nc(NC2CCN(Cc3ccc(C(N)=O)cc3)CC2)nc2ccn(S(=O)(=O)c3ccccc3)c12 | 2 | 227 | – | CC50 (MT4): > 39.3 µM |
| O=C1Nc2ccc(Cl)cc2[C@@](C#CC2CC2)(C(F)(F)F)O1 [EFAVIRENZ] | – | – | > 6.34 | – |
| Cc1cn([C@H]2C[C@H](N=[N+]=[N-])[C@@H](CO)O2)c(=O)[nH]c1=O [ZIDOVUDINE] | > 448 | > 1000 | 7.48 | – |
